Experimental data taken from patent US5409948A (priority 1992, dated 1995).
“Also recorded” adds a separate entry of the source.

Columns and labels:
[1] = system: scopolamine-induced impairment in learning performance of rats; set-up: species or system male Fischer-344 rats; conditions: rat, in vivo
[2] = system: patients with Alzheimer's disease; conditions: human, in vivo; cited from earlier work
[3] = system: human acetylcholinesterase (AChE); type: biochemical
[4] = molecular target: human butyrylcholinesterase (BChE); conditions: read-out: IC50 against human BChE; cited from earlier work
[5] = system: plasma AChE; type: in vivo, Fischer-344 rats
[6] = molecular target: human acetylcholinesterase (AChE); conditions: read-out: IC50 against human AChE; cited from earlier work
[7] = rat, in vivo
[8] = in vivo
[9] = system: cholinesterase (ChE); conditions: cited from earlier work
[10] = system: acetylcholine in brain; conditions: in vivo; cited from earlier work
[11] = system: cholinesterase; conditions: cited from earlier work
[12] = system: scopolamine-induced impairment in learning performance of rats; conditions: rat, in vivo; cited from earlier work
[13] = system: performance deficits induced by scopolamine; conditions: in vivo; cited from earlier work
[14] = in vivo; cited from earlier work
[15] = system: memory consolidation in mice; conditions: mouse, in vivo; cited from earlier work
[16] = system: neuromuscular AChR; conditions: cited from earlier work
[17] = system: brain and plasma AChE and BChE; conditions: cited from earlier work

CN1[C@@H]2C[C@@H](OC(=O)[C@H](CO)c3ccccc3)C[C@H]1[C@@H]1O[C@@H]12 [SCOP, reference compound]
all five measures of the maze task [1]: significantly worse performance in all five measures of the maze task

Nc1c2c(nc3ccccc13)CCCC2 [THA, tetrahydroaminoacridine]
toxicity in Alzheimer's patients [2]: causes toxicity

CN1CC[C@@]2(C)c3cc(OC(=O)Nc4ccccc4)ccc3N(C)[C@@H]12 [phenserine, (-)-N-phenylcarbamoyl eseroline]
selectivity of anticholinesterase action (AChE vs BChE) [3]: high selectivity of anticholinesterase action
IC50 [4]: 1300 ± 8.5 nM
AChE inhibition at 8 hours ([5]; at 8 hours): 43.0%
AChE inhibition and its duration, in words ([5]; rat, in vivo): long, steady state inhibition of AChE at very low and non-toxic doses
AChE inhibition compared to physostigmine ([5]; rat, in vivo): dramatically higher inhibition of AChE at a lower dose
duration of high and relatively constant AChE inhibition ([5]; rat, in vivo): more than 8 hours
maximum AChE inhibition ([5]; rat, in vivo): 73.5%
IC50 [6]: 24 ± 6 nM
SCOP-induced learning impairment [1]: significantly attenuated the SCOP-induced learning impairment
alternation error ratio [1]: only 10.0 and 1.5 mg/kg doses of phenserine improved alternation error performance at blocks 4 and 5 and block 5, respectively; also recorded: only the 10.0 and 1.5 mg/kg doses of phenserine reduced the ratio significantly at blocks 4 and 5 and block 5, respectively
error performance [1]: all but the 7.5 mg/kg dose of phenserine significantly ameliorated error performance
error performance at blocks 4 and 5 [1]: improved error performance at maze training blocks 4 and 5 except the 7.5 mg/kg dose
number of errors at block 4 [1]: reduced significantly at block 4 by all but the 7.5 mg/kg dose
runtime [1]: all but the 7.5 mg/kg dose of phenserine significantly ameliorated error performance, runtime
shock duration [1]: all but the 7.5 mg/kg dose of phenserine significantly ameliorated error performance, runtime, shock frequency and shock duration
shock frequency [1]: all but the 7.5 mg/kg dose of phenserine significantly ameliorated error performance, runtime, shock frequency
therapeutic window [1]: wide therapeutic window
time after i.p. administration at which improvement of learning performance was observed ([1]; ip): more than 1 hour
activity of animals [7]: seemed less active than at other doses
behavior of animals [7]: very aggressive and difficult to handle
peripheral cholinergic effects, such as salivation and diarrhea [7]: not noticed at any doses tested
side effects [7]: chewing, grooming, and wet dog shakes
toxic side effects without peripheral cholinergic inhibitors [7]: large doses can be administered without toxic side effects
LD50 (in words) [8]: substantially higher than that of physostigmine itself
central tremor [8]: a slight central tremor is evident
toxicity or deaths [8]: have not been associated with toxicity or deaths

CNC(=O)Oc1ccc2c(c1)[C@@]1(C)CCN(C)[C@H]1N2C [(+)-physostigmine]
inhibition of cholinesterase [9]: negligible inhibition; also recorded: negligible ChE inhibitory activity

CCCCCCCNC(=O)Oc1ccc2c(c1)[C@]1(C)CCN(C)[C@@H]1N2C [heptyl-Phy]
increases in acetylcholine in brain vs parent compound [10]: more persistent increases in acetylcholine in brain
inhibitory action on cholinesterase vs parent compound [11]: longer inhibitory action on cholinesterase
alternation error performance [12]: lack of improvement
learning impairment of SCOP-treated rats [12]: failed to ameliorate the learning impairment
number of errors [12]: significantly reduced the number of errors
scopolamine-induced learning impairment of rats [12]: attenuated the scopolamine-induced learning impairment
performance deficits induced by scopolamine [13]: reverses the performance deficits induced by scopolamine
toxicity vs parent compound [14]: less toxicity than the parent compound
activity in 14-unit T-maze model, in words [1]: inferior to phenserine
mean errors per trial at each block of three trials [1]: reduced error performance compared to the SCOP group
mean errors per trial for 15 trials [1]: significantly (P<0.05) better performance than the SCOP group
ratio of alternation errors per trial to opportunities [1]: no significant effect
memory consolidation [15]: facilitates memory consolidation in mice

CNC(=O)Oc1ccc2c(c1)[C@]1(C)CCN(C)[C@@H]1N2C [Physostigmine]
properties at the neuromuscular AChR [16]: blocking properties as well as agonist properties
LD50 [14]: 0.6 mg/kg
AChE inhibition at 60 minutes ([5]; rat, in vivo): negligible
AChE inhibition, immediate ([5]; rat, in vivo): approximately 50%
pharmacological half life in patients [2]: short pharmacological half life
activity in 14-unit T-maze model, in words [1]: no significant activity in this model
IC50 of brain vs plasma AChE and BChE [17]: similar
